Reference: patent US4904668A, “Benzoyl urea compound” (Ishihara Sangyo Kaisha Ltd., priority 1986, dated 1990)
Values belong to the compound of their own block, whether it stands above or below them.

Legend:
[1] = average particle size of pulverized benzoyl urea compound by light scattering (Autosizer Model 700); assay type: physicochemical; details: for average particle size in the liquid formulation: 3000 rpm 45 minutes, autoclaved
Experimental: Compound No. 3, No. 5 or No. 6 (4 w/v%) as the benzoyl urea compound and polyoxyethylene hardened caster oil 60 (HCO-60, manufactured by Nikko Chemical K.K., 10 w/v%) as a dispersant were suspended in water, and after an addition of glass beads (from 1 to 1.4 mm in diameter) in an amount of the same volume, subjected to rotary pulverization by Dyno-mill for 20 minutes.
(§1) The average particle size was measured in such a manner that the benzoyl urea compound was diluted to a concentration of 20 μg/ml and the average particle size was measured by a light scattering method (Autosizer, Model 700, manufactured by Maruburn Company) (the same applies hereinafter).
Compound No. 3 (4 w/v%) and the following dispersant (10 w/v%) were suspended in water, and after an addition of glass beads (from 1 to 1.4 mm in diameter) in an amount of the same volume, subjected to rotary pulverization by Dyno-mill for 45 minutes. As the dispersant, polyoxyethylene hardened caster oil 60 (HCO-60, manufactured by Nikko Chemical K.K.), polyoxyethylene (160) polyoxypropylene (30) glycol (F68, manufactured by Asahi Denka Kogyo K.K.), a decaglycerol fatty acid ester (Decagly.ester, Nikko Chemical K.K.) or polysolbate 80 (Tween 80, manufactured by Nakarai Kagaku K.K.) was employed.
Compound No. 3 (from 10 to 40 w/v%), HCO-60 (5 w/v%) as a dispersant and glass beads (from 1 to 1.5 mm in diameter) were subjected to rotary pulverization by Dyno-mill for pulverization time of 30 minutes. Then, the average particle size of the benzoyl urea compound was measured.
Compound No. 3 (20 w/v%), HCO-60 (from 2.5 to 10 w/v%) as the dispersant and glass beads (from 1 to 1.5 mm in diameter) were subjected to rotary pulverization by Dyno-mill for a pulverization time of 30 minutes. Then, the average particle size of the benzoyl urea compound was measured.
Compound No. 3 (40 w/v%), HCO-60 (5 w/v%) as the dispersant and glass beads (three types having a diameter of from 0.25 to 0.5, from 0.5 to 0.75 and from 1 to 1.5 mm, respectively) were subjected to rotary pulverization by Dyno-mill for a pulverization time of 30 minutes. Then, the average particle size of the benzoyl urea compound was measured.
Compound No. 3 (40 w/v%), HCO-60 (5 w/v%) as the dispersant and glass beads (from 0.25 to 0.5 mm in diameter), were subjected to rotary pulverization by Dyno-mill for a pulverization time of from 10 to 60 minutes. Then, the average particle size of the benzoyl urea compound was measured.
(§2) Compound No. 3 (20 g) was suspended in 50 ml of a 5 w/v% HCO-60 aqueous solution, and the suspension was wet pulverized (3000 rpm for 45 minutes) by Dyno-mill by using 50 g of glass beads (from 0.25 to 0.5 mm in diameter). After the completion of the pulverization, glass beads were removed by sieving, to obtain a wet pulverized formulation of Compound No. 3.
(§3) The wet pulverized formulation thus obtained was sterilized in an autoclave to obtain a liquid formulation of a final form. The average particle size of Compound No. 3 in this liquid formulation was 0.68 μm. Instead of the sterilization in an autoclave, it is possible to employ filtration to remove bacteria. If necessary, a sweetening agent, a perfume, etc. may be added.
as §2, with “(15” for “(20”, “decaglycerol monolaurate (Decagline 1 L, manufactured by Nikko Chemical K.K.)” for “HCO-60”
as §3, with “0.75” for “0.68”, “added. […]” for “added.”

[2] = oral administration of wet pulverized formulations to rats, AUC of concentration in blood; assay type: in vivo, Wister male rats; details: rat, plasma, 50 mg/kg, 50 mg/5 ml/kg, compound 40 w/v%, HCO-60 10 w/v%
Experimental: Each of four wet pulverized formulations having different particle sizes [composition: Compound No. 3 (40 w/v%) and HCO-60 (10 w/v%)] was forcibly orally administered by an oral sonde to a group of 5 Wister male rats (body weight: 200 g) starved for 18 hours (dose: 50 mg/5 ml/kg). Then, blood (0.3 ml) was periodically sampled with heparin from the jugular vein. The blood thus obtained was subjected to separation of the plasma and removal of proteins by using acetonitrile, and then Compound No. 3 was quantitatively analyzed by a high speed liquid chromatography using a reversed phase column (Nova Pak C18, 5μ, 3.9 mm in diameter×150 mm, Nihon Waters), and the curve of the concentration in blood was prepared. From the curve of the concentration in blood, the area below the curve was obtained by using a trapezoid formula and presented as AUC (Area Under the Curve).

[3] = stability of particles in the liquid composition on storage at room temperature; assay type: physicochemical; details: compound 40 w/v%, HCO-60 10 w/v%
Experimental: as §1
The stability of particles in the liquid composition of the benzoyl urea compound was investigated.
Namely, a wet pulverization formulation comprising compound No. 3 (40 w/v%) and HCO-60 (10 w/v%) was stored at room temperature, whereby the stability of the particles was investigated.

[4] = compound 4 w/v%, HCO-60 10 w/v%, glass beads 1 to 1.4 mm, Dyno-mill 20 minutes

- average particle size in the liquid formulation ([1]; Example 1: 20 g in 50 ml 5 w/v% HCO-60, beads 0.25 to 0.5 mm): 0.68 μm
- average particle size in the liquid formulation ([1]; Example 3: 15 g in 50 ml 5 w/v% decaglycerol monolaurate, beads 0.25 to 0.5 mm): 0.75 μm
- Particle size (average) [1, 4]: 0.43 μm
- Particle size (average) ([1]; diameter of beads 0.25-0.5 mm, compound 40 w/v%, HCO-60 5 w/v%, 30 minutes): 0.30 μm
- Particle size (average) ([1]; diameter of beads 0.5-0.75 mm, compound 40 w/v%, HCO-60 5 w/v%, 30 minutes): 0.33 μm
- Particle size (average) ([1]; diameter of beads 1-1.5 mm, compound 40 w/v%, HCO-60 5 w/v%, 30 minutes (Table 5)): 0.46 μm
- Particle size (average) ([1]; dispersant Decagly.ester 10 w/v%, compound 4 w/v%, beads 1 to 1.4 mm, 45 minutes): 0.6 μm
- Particle size (average) ([1]; dispersant F68 10 w/v%, compound 4 w/v%, beads 1 to 1.4 mm, 45 minutes): 0.9 μm
- Particle size (average) ([1]; dispersant HCO-60 2.5 w/v%, compound 20 w/v%, beads 1 to 1.5 mm, 30 minutes): 0.54 μm
- Particle size (average) ([1]; dispersant HCO-60 5 w/v%, compound 20 w/v%, beads 1 to 1.5 mm, 30 minutes (Table 4)): 0.50 μm
- Particle size (average) ([1]; dispersant HCO-60 10 w/v%, compound 4 w/v%, beads 1 to 1.4 mm, 45 minutes): 0.9 μm
- Particle size (average) ([1]; dispersant HCO-60 10 w/v%, compound 20 w/v%, beads 1 to 1.5 mm, 30 minutes): 0.45 μm
- Particle size (average) ([1]; dispersant Tween 80 10 w/v%, compound 4 w/v%, beads 1 to 1.4 mm, 45 minutes): 0.6 μm
- Particle size (average) ([1]; pulverization time 10 minutes, compound 40 w/v%, HCO-60 5 w/v%, beads 0.25 to 0.5 mm): 0.38 μm
- Particle size (average) ([1]; pulverization time 20 minutes, compound 40 w/v%, HCO-60 5 w/v%, beads 0.25 to 0.5 mm): 0.33 μm
- Particle size (average) ([1]; pulverization time 30 minutes, compound 40 w/v%, HCO-60 5 w/v%, beads 0.25 to 0.5 mm (Table 6)): 0.29 μm
- Particle size (average) ([1]; pulverization time 40 minutes, compound 40 w/v%, HCO-60 5 w/v%, beads 0.25 to 0.5 mm): 0.27 μm
- Particle size (average) ([1]; pulverization time 50 minutes, compound 40 w/v%, HCO-60 5 w/v%, beads 0.25 to 0.5 mm): 0.26 μm
- Particle size (average) ([1]; pulverization time 60 minutes, compound 40 w/v%, HCO-60 5 w/v%, beads 0.25 to 0.5 mm): 0.26 μm
- Particle size (average) ([1]; sample 10 w/v%, HCO-60 5 w/v%, beads 1 to 1.5 mm, 30 minutes): 0.56 μm
- Particle size (average) ([1]; sample 20 w/v%, HCO-60 5 w/v%, beads 1 to 1.5 mm, 30 minutes): 0.50 μm
- Particle size (average) ([1]; sample 40 w/v%, HCO-60 5 w/v%, beads 1 to 1.5 mm, 30 minutes): 0.46 μm
- AUC(0-t) at 24 h ([2]; particle size 0.31 μm): 11600 ± 2300 ng·h/mL
- AUC(0-t) at 24 h ([2]; particle size 0.66 μm): 10000 ± 1600 ng·h/mL
- AUC(0-t) at 24 h ([2]; particle size 1.5 μm): 8100 ± 1200 ng·h/mL
- AUC(0-t) at 24 h ([2]; particle size 2.5 μm): 6900 ± 1400 ng·h/mL
- Particle size on storage ([3]; 0 months): 0.7 μm
- Particle size on storage ([3]; 1 month): 0.8 μm
- Particle size on storage ([3]; 3 months): 1.3 μm
SMILES: O=C(NC(=O)c1ccccc1[N+](=O)[O-])Nc1ccc(Oc2ncc(Br)cn2)c(Cl)c1 [Compound No. 3]

- Particle size (average) [1, 4]: 1.13 μm
SMILES: O=C(NC(=O)c1ccccc1[N+](=O)[O-])Nc1ccc(Oc2ncc(Cl)cn2)c(C(F)(F)F)c1 [Compound No. 5]

SMILES: O=C(NC(=O)c1ccccc1[N+](=O)[O-])Nc1ccc(Oc2ncc(Cl)cn2)c([N+](=O)[O-])c1 [Compound No. 6]
- Particle size (average) [1, 4]: 0.72 μm
